System: vascular endothelial growth factor (VEGF)
Test: Brain VEGF gene expression in mice after intravenous injection
Type: in vivo, Swiss Webster mice
Settings: 20 mg/kg i.v., four hours, quantitative real time PCR normalized to 18s RNA
Protocol: The effect of compounds of the present invention on regulation of cytoprotective and neuroprotective gene expression in brain was evaluated. In one series of experiments, male Swiss Webster mice were administered by intravenous injection various compounds of the present invention. Animals treated by intravenous injection received a 6 ml/kg volume of either 5% Dextrose with an equimolar amount of Meglumine (vehicle control) or 20 mg/kg of a compound of the present invention in 5% dextrose with an equimolar amount of Meglumine Animals were euthanized four hours later and their brains placed in RNAlater (Ambion, Austin Tex.) for subsequent analysis. Tissues were homogenized in Trizol (Invitrogen, Carlsbad Calif.) using 5-mm steel beads in a Mixer Mill (Qiagen, Valencia Calif.). RNA was isolated from the Trizol solution and then further purified using RNeasy kit (Qiagen). cDNA was prepared from […] total RNA using Omniscript reverse transcriptase (Qiagen) and random hexamers. Quantitative real time PCR was performed in a 7900HT instrument (Applied Biosystems, Foster City Calif.) using TaqMan Assays-on-Demand (Applied Biosystems). Gene expression levels were normalized to that of 18s RNA.

| Compound | VEGF gene expression in brain |
| --- | --- |
| O=C(O)CNC(=O)c1ncc2ccc(Sc3ccccn3)cc2c1O [Compound AB, {[4-Hydroxy-6-(pyridin-2-ylsulfanyl)-isoquinoline-3-carbonyl]-amino}-acetic acid] | 2.1 |
| Cc1nc(C(=O)NCC(=O)O)c(O)c2cc(Oc3ccccc3)ccc12 [Compound AA, [(4-Hydroxy-1-methyl-6-phenoxy-isoquinoline-3-carbonyl)-amino]-acetic acid] | 2.1 |

From US9775902B2, “Compounds and methods for treatment of stroke” (FIBROGEN, INC, priority 2006, dated 2017)
